Results taken from patent publication US7732429B2 (Trustees of Tufts College, priority 1994, dated 2010).

What was measured:
Experiment in all cases: MIC/MLC chart, analog with and without doxycycline
Format in all cases: cell-based
S. aureus 4250 (Tet K) = system: S. aureus 4250 (Tet K)
E. faecalis 211 (Tet M) = system: E. faecalis 211 (Tet M)
E. coli DI-299 (Tet A) = system: E. coli DI-299 (Tet A); design: key to growth/killing, Analog + Doxy / growth/killing, Doxy Control / growth/killing, Analog Control / growth in MIC/MLC chart: +=growth; 0=no growth (MIC); ↓=killing; ? =99.9% killing (MLC); □=no growth, but no microbiologic testing;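 further: bacterial growth inhibition and killing in broth, each agent tested alone or combined with doxycycline across two-fold serial dilutions, overnight incubation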
E. faecalis 158 (Tet L) = system: E. faecalis 158 (Tet L)
[1] = Doxy Control: doxycycline alone 1.56 μg/ml
[2] = Doxy Control: doxycycline alone 3.12 μg/ml
[3] = Doxy Control: doxycycline alone 6.25 μg/ml
[4] = Doxy Control: doxycycline alone 12.5 μg/ml

C[C@H]1c2cccc(O)c2C(O)=C2C(=O)[C@]3(O)C(O)=C(C(N)=O)C(=O)[C@@H](N(C)C)[C@@H]3[C@@H](O)[C@@H]21 [Doxy, Doxycycline, reference compound]
+: growth in MIC/MLC chart (S. aureus 4250 (Tet K); [1]) | growth in MIC/MLC chart (S. aureus 4250 (Tet K); [2]) | growth in MIC/MLC chart (S. aureus 4250 (Tet K); [3]) | growth in MIC/MLC chart (S. aureus 4250 (Tet K); [4]) | growth/killing, Doxy Control (S. aureus 4250 (Tet K); Doxy alone 1.56 μg/ml) | growth/killing, Doxy Control (S. aureus 4250 (Tet K); Doxy alone 3.12 μg/ml) | growth/killing, Doxy Control (S. aureus 4250 (Tet K); Doxy alone 6.25 μg/ml) | growth/killing, Doxy Control (S. aureus 4250 (Tet K); Doxy alone 12.5 μg/ml) | growth in MIC/MLC chart (E. faecalis 211 (Tet M); [1]) | growth in MIC/MLC chart (E. faecalis 211 (Tet M); [2]) | growth in MIC/MLC chart (E. faecalis 211 (Tet M); [3]) | growth in MIC/MLC chart (E. faecalis 211 (Tet M); [4]) | growth/killing, Doxy Control (E. faecalis 211 (Tet M); Doxy alone 1.56 μg/ml) | growth/killing, Doxy Control (E. faecalis 211 (Tet M); Doxy alone 3.12 μg/ml) | growth/killing, Doxy Control (E. faecalis 211 (Tet M); Doxy alone 6.25 μg/ml) | growth/killing, Doxy Control (E. faecalis 211 (Tet M); Doxy alone 12.5 μg/ml) | growth in MIC/MLC chart (E. coli DI-299 (Tet A); [1]) | growth in MIC/MLC chart (E. coli DI-299 (Tet A); [2]) | growth in MIC/MLC chart (E. coli DI-299 (Tet A); [3]) | growth in MIC/MLC chart (E. coli DI-299 (Tet A); [4]) | growth in MIC/MLC chart (E. coli DI-299 (Tet A); Doxy Control: doxycycline alone 25.0 μg/ml) | growth/killing, Doxy Control (E. coli DI-299 (Tet A); Doxy alone 1.56 μg/ml) | growth/killing, Doxy Control (E. coli DI-299 (Tet A); Doxy alone 3.12 μg/ml) | growth/killing, Doxy Control (E. coli DI-299 (Tet A); Doxy alone 6.25 μg/ml) | growth/killing, Doxy Control (E. coli DI-299 (Tet A); Doxy alone 12.5 μg/ml) | growth/killing, Doxy Control (E. coli DI-299 (Tet A); Doxy alone 25.0 μg/ml) | growth in MIC/MLC chart (E. faecalis 158 (Tet L); [1]) | growth in MIC/MLC chart (E. faecalis 158 (Tet L); [2]) | growth in MIC/MLC chart (E. faecalis 158 (Tet L); [3]) | growth/killing, Doxy Control (E. faecalis 158 (Tet L); Doxy alone 1.56 μg/ml) | growth/killing, Doxy Control (E. faecalis 158 (Tet L); Doxy alone 3.12 μg/ml) | growth/killing, Doxy Control (E. faecalis 158 (Tet L); Doxy alone 6.25 μg/ml)
